This is an account of results in paper PMC9926234, “Iterative computational design and crystallographic screening identifies potent inhibitors targeting the Nsp3 macrodomain of SARS-CoV-2” (Proceedings of the National Academy of Sciences of the …, 2023).

Test [1] deals with T1, SARS-CoV-2 NSP3 Mac1 (Severe acute respiratory syndrome coronavirus 2, UniProt P0DTD1). Format: binding. Particulars: for Refined occupancy: ligand occupancy after refinement (phenix.refine).
Test [2] has as its target T1, SARS-CoV-2 NSP3 Mac1. Format: binding. Particulars: for Spearman est (compound concentration vs apparent Tm): DSF dose responsiveness, 1 µM nsp3 mac1, adj p given. The arrangement: contains a conserved macrodomain enzyme (Mac1). The procedure, abridged: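 Differential scanning fluorimetry using 5 µM Fluorescent Yellow dye in place of SYPRO Orange. Compounds run in triplicate at seven two-fold dilutions from 1,000 or 100 μM, with ΔTma taken against a DMSO control in the same plate region. Dose-response significance assessed by Spearman's coefficient between concentration and ΔTma.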

[3] abbreviates: PanDDA 1-BDC value of the event, crystal soak, compound concentration 100 mM, per dataset.
Setting [4] is: PanDDA event map, 1 minus background density correction, crystal soaking of Mac1.
Setting [5] is: crystal soak, compound concentration 100 mM, per dataset.
Where [6] appears, read: ligand modeled in the crystal structure, crystal soak, compound concentration 100 mM, per dataset.
The mark [7] stands for this setting: true hit = binding in crystallographic soaking or the HTRF-based binding assay.
Where [8] appears, read: overall hit flag: binding in crystallographic soaking or the HTRF-based binding assay.
[9] abbreviates: maximal thermal upshift vs DMSO control.

Read-outs that look alike come from different tables or passages of the source.

As to `O=C(Nc1ccc(C(=O)N2CC(C(=O)O)Cc3ccccc32)cc1)NC1CC1` (stereo not shown) [8539_0038], the 1-BDC at SARS-CoV-2 NSP3 Mac1 [1] (setting [3]) and on SARS-CoV-2 NSP3 Mac1 [1] (setting [4]) was 0.06 in each case. For the same compound, on SARS-CoV-2 NSP3 Mac1 [1] (setting [5]), the “PanDDA hit?” value is “TRUE”. In addition, the “Modeled?” value on SARS-CoV-2 NSP3 Mac1 [1] (setting [6]) is on record as “TRUE”. Moreover, the Refined occupancy on SARS-CoV-2 NSP3 Mac1 [1] (crystal soaking of Mac1) is 12. Also, the “HIT*” value at SARS-CoV-2 NSP3 Mac1 [1] (setting [7]) is listed as “Y”. In addition, at SARS-CoV-2 NSP3 Mac1 [2], the “Spearman est (compound concentration vs apparent Tm)” value is on record as 0.19. Further, the “DSF max dTma” value on SARS-CoV-2 NSP3 Mac1 [2] (maximal thermal upshift) is given as 0.98 ˚C.
On to `Cc1oc(=O)oc1CSc1ncnc2[nH]cnc12` [Z7450], for which the “HIT*” value on SARS-CoV-2 NSP3 Mac1 [1] (setting [8]) is “Y”. The “DSF max dTma” value at SARS-CoV-2 NSP3 Mac1 [2] (setting [9]) was 0.49 °C.
Take `Cc1nnc2n1CC(C(=O)O)N(C(=O)c1ccc(NC(=O)NC3CC3)cc1)C2` (stereo not shown) [8539_0037]: the 1-BDC at SARS-CoV-2 NSP3 Mac1 [1] (setting [3]) and on SARS-CoV-2 NSP3 Mac1 [1] (setting [4]) was 0.4 throughout. On SARS-CoV-2 NSP3 Mac1 [1] (setting [5]), the “PanDDA hit?” value is “TRUE”. The “Modeled?” value at SARS-CoV-2 NSP3 Mac1 [1] (setting [6]) is “TRUE”. Moreover, the Refined occupancy on SARS-CoV-2 NSP3 Mac1 [1] (crystal soaking of Mac1) turned out to be 80. Further, on SARS-CoV-2 NSP3 Mac1 [1] (setting [7]), the “HIT*” value was “Y”. Further, on SARS-CoV-2 NSP3 Mac1 [2], the “Spearman est (compound concentration vs apparent Tm)” value was 0.16. For the same compound, at SARS-CoV-2 NSP3 Mac1 [2] (maximal thermal upshift), the “DSF max dTma” value is given as 2.36 ˚C.
Take `Nc1nc(N)c2ncn(Cc3csc(C4CC4)n3)c2n1` [Z8585]: at SARS-CoV-2 NSP3 Mac1 [1] (setting [8]), the “HIT*” value was “Y”. In addition, on SARS-CoV-2 NSP3 Mac1 [2] (setting [9]), the “DSF max dTma” value worked out at 1.3 °C.
`Cc1ccc([C@@H]2C[C@@H](C)CCN2C(=O)c2ncnc3[nH]ccc23)o1` [ZINC000611664196]: the 1-BDC on SARS-CoV-2 NSP3 Mac1 [1] (setting [3]) and on SARS-CoV-2 NSP3 Mac1 [1] (setting [4]) was 0.05 in each case. For the same compound, the “PanDDA hit?” value on SARS-CoV-2 NSP3 Mac1 [1] (setting [5]) is “TRUE”. The “Modeled?” value at SARS-CoV-2 NSP3 Mac1 [1] (setting [6]) is reported as “TRUE”. The Refined occupancy at SARS-CoV-2 NSP3 Mac1 [1] (crystal soaking of Mac1) was found to be 10. Also, at SARS-CoV-2 NSP3 Mac1 [1] (setting [7]), the “HIT*” value is on record as “Y”. At SARS-CoV-2 NSP3 Mac1 [2], the “Spearman est (compound concentration vs apparent Tm)” value is −0.75. The “DSF max dTma” value at SARS-CoV-2 NSP3 Mac1 [2] (maximal thermal upshift) was 0.14 ˚C.
Consider `CN(CCCC(=O)O)C(=O)c1ncnc2[nH]ccc12` [REAL250002155324], for which the 1-BDC on SARS-CoV-2 NSP3 Mac1 [1] (setting [4]) is listed as 0.12. The compound further showed a Refined occupancy on SARS-CoV-2 NSP3 Mac1 [1] (crystal soaking of Mac1) of 24. For the same compound, the “HIT*” value on SARS-CoV-2 NSP3 Mac1 [1] (setting [7]) was “Y”. Moreover, the “Spearman est (compound concentration vs apparent Tm)” value on SARS-CoV-2 NSP3 Mac1 [2] is listed as −0.27. Further, the “DSF max dTma” value at SARS-CoV-2 NSP3 Mac1 [2] (maximal thermal upshift) is on record as 0.12 ˚C.
On to `Nc1ncnc(N2CCCC(CCC(=O)O)C2)c1Cl` (stereo not shown) [REAL250003296134], for which the 1-BDC at SARS-CoV-2 NSP3 Mac1 [1] (setting [3]) and at SARS-CoV-2 NSP3 Mac1 [1] (setting [4]) was 0.09 throughout. The “PanDDA hit?” value at SARS-CoV-2 NSP3 Mac1 [1] (setting [5]) was “TRUE”. For the same compound, the “Modeled?” value at SARS-CoV-2 NSP3 Mac1 [1] (setting [6]) is on record as “TRUE”. For the same compound, the Refined occupancy at SARS-CoV-2 NSP3 Mac1 [1] (crystal soaking of Mac1) is recorded as 18. Also, the “HIT*” value at SARS-CoV-2 NSP3 Mac1 [1] (setting [7]) is on record as “Y”. For the same compound, the “Spearman est (compound concentration vs apparent Tm)” value at SARS-CoV-2 NSP3 Mac1 [2] was determined as 0.65. For the same compound, the “DSF max dTma” value at SARS-CoV-2 NSP3 Mac1 [2] (maximal thermal upshift) is given as 0.34 ˚C.
Consider `CCc1c[nH]c2ncc(-c3c(C(=O)O)c(C)nn3C)cc12` [REAL250003958539], for which the 1-BDC is 0.2 at SARS-CoV-2 NSP3 Mac1 [1] (PanDDA event map, 1-BDC of the hit dataset, crystal soak, compound concentration 100 mM) and 0.14 at SARS-CoV-2 NSP3 Mac1 [1] (setting [4]). The Refined occupancy on SARS-CoV-2 NSP3 Mac1 [1] (crystal soaking of Mac1) amounted to 28. Also, the “HIT*” value at SARS-CoV-2 NSP3 Mac1 [1] (setting [7]) is on record as “Y”. For the same compound, the “Spearman est (compound concentration vs apparent Tm)” value on SARS-CoV-2 NSP3 Mac1 [2] was 0.15. On SARS-CoV-2 NSP3 Mac1 [2] (maximal thermal upshift), the “DSF max dTma” value was 0.35 ˚C.
On to `c1csc(CC2CCN(c3ncnc4[nH]ccc34)C2)n1` (stereo not shown) [Z6891], for which the “HIT*” value at SARS-CoV-2 NSP3 Mac1 [1] (setting [8]) is reported as “Y”. For the same compound, the “DSF max dTma” value on SARS-CoV-2 NSP3 Mac1 [2] (setting [9]) was 0.15 °C.
For the compound `Cn1nc(O)c2c1CN(C(=O)c1cc(O)cc(=O)o1)CC2` [FRESH00002410346], the 1-BDC on SARS-CoV-2 NSP3 Mac1 [1] (setting [3]) and at SARS-CoV-2 NSP3 Mac1 [1] (setting [4]) was 0.07 throughout. On SARS-CoV-2 NSP3 Mac1 [1] (setting [5]), the “PanDDA hit?” value is given as “TRUE”. For the same compound, at SARS-CoV-2 NSP3 Mac1 [1] (setting [6]), the “Modeled?” value is on record as “TRUE”. This compound also showed a Refined occupancy on SARS-CoV-2 NSP3 Mac1 [1] (crystal soaking of Mac1) of 14. Also, the “HIT*” value at SARS-CoV-2 NSP3 Mac1 [1] (setting [7]) is recorded as “Y”. Also, the “Spearman est (compound concentration vs apparent Tm)” value on SARS-CoV-2 NSP3 Mac1 [2] is given as −0.34. In addition, the “DSF max dTma” value at SARS-CoV-2 NSP3 Mac1 [2] (maximal thermal upshift) is recorded as 0.09 ˚C.
On to `OCc1cn(C2CCCN(c3ncnc4[nH]ccc34)C2)nn1` (stereo not shown) [Z7864], for which the “HIT*” value at SARS-CoV-2 NSP3 Mac1 [1] (setting [8]) is reported as “Y”. In addition, the “DSF max dTma” value at SARS-CoV-2 NSP3 Mac1 [2] (setting [9]) amounted to 0.32 °C.
As for `C[C@H]1CN(C(=O)c2cccc3[nH]c(=O)oc23)C[C@@H]1C(=O)O` [ZINC000833624464], the “1-BDC (PanDDA)” value at SARS-CoV-2 NSP3 Mac1 [1] (setting [4]) is recorded as 0.08. Also, the “Modeled?” value at SARS-CoV-2 NSP3 Mac1 [1] (ligand modeled from this dataset, compound concentration 100 mM) was “TRUE”. Besides, the Refined occupancy on SARS-CoV-2 NSP3 Mac1 [1] (crystal soaking of Mac1) is reported as 16. For the same compound, the “HIT*” value on SARS-CoV-2 NSP3 Mac1 [1] (setting [7]) is given as “Y”. On SARS-CoV-2 NSP3 Mac1 [2], the “Spearman est (compound concentration vs apparent Tm)” value is on record as −0.44. Moreover, on SARS-CoV-2 NSP3 Mac1 [2] (maximal thermal upshift), the “DSF max dTma” value is given as 0.3 ˚C.
Consider `Nc1ncnc(N2CCC(Oc3ccncc3)C2)c1Cl` (stereo not shown) [ZINC000302059710], for which the 1-BDC came to 0.13 at SARS-CoV-2 NSP3 Mac1 [1] (PanDDA event map background density correction, crystal soak, Compound_concentration 100 mM, PanDDA run dmso_34) and 0.13 at SARS-CoV-2 NSP3 Mac1 [1] (setting [4]). Further, the “PanDDA hit?” value on SARS-CoV-2 NSP3 Mac1 [1] (crystal soak, Compound_concentration 100 mM, Echo dispense 40 nl, PanDDA run dmso_34) is reported as “TRUE”. The “Modeled?” value at SARS-CoV-2 NSP3 Mac1 [1] (ligand modeled in crystal structure, crystal soak, Compound_concentration 100 mM, PanDDA run dmso_34) is “TRUE”. The same compound registered a Refined occupancy at SARS-CoV-2 NSP3 Mac1 [1] (crystal soaking of Mac1) of 26. Further, the “HIT*” value on SARS-CoV-2 NSP3 Mac1 [1] (setting [8]) is “Y”. The “Spearman est (compound concentration vs apparent Tm)” value on SARS-CoV-2 NSP3 Mac1 [2] is listed as −0.85. The “DSF max dTma” value on SARS-CoV-2 NSP3 Mac1 [2] (setting [9]) worked out at 0 °C.
